We go through eight molecules from US11813257B2, “Methods of treating erythropoietic protoporphyria, X-linked protoporphyria, or congenital erythropoietic porphyria with glycine transport inhibitors” (Disc Medicine, Inc., priority 2020, dated 2023).

Type in all cases: cell-based
Data set [1] deals with K562 clone-9 cells. Put plainly: EPP cellular model: PPIX level by flow cytometry after 96 h compound incubation. Conditions: for EC50: Homo sapiens, K562 clone-9 cells, 96 hours, flow cytometry, read-out: EPP cellular model (EC50 nM), inhibition of PPIX accumulation. The procedure:
Knockout guide sequences were designed to target Exon3 of the Ferrochelatase gene.
K562 cells were cultured in Iscove's Modified Dulbecco's Medium (IMDM) supplemented with 10% fetal bovine serum (FBS), 1% penicillin/streptomycin (PS). CRISPR Cas9 RNP complex with guide RNA was electroporated in K562 cells. Genomic DNA from the pooled cells was isolated, amplified by PCR and sequenced by Sanger sequencing to determine knockout efficiency. Single-cell clones were isolated by fluorescent-assisted cell sorting (FACS). TA cloning and Sanger sequencing were used to confirm single-cell clones and genotypes. Five clones were selected (Clone IDs are: Clone 1-7; Clone 1-9; Clone 1-10, Clone 1-32; Clone 1-51; and K562 WT) for further characterization by western blot (FIG. 1) to determine FECH protein expression levels (Antibody: FECH Antibody Rabbit Polyclonal, Proteintech, 14466-1-AP) and flow cytometry to determine the PPIX levels (FIG. 2). LC/MS/MS confirmed the accumulation of PPIX in clone 1-9 compared to WT K562 cells (FIG. 3).
(§1) 900 μL of K562 clone-9 cells at 2×10^5 cells/mL in IMDM media with 10% FBS and 1% PS were plated into a 24-well plate. After 24-hour incubation, 100 μL of compound in DMSO/media was added in different concentration. The final concentration of DMSO was 0.1%. The compound was incubated for 96 hours at 37° C. Cell viability and cell count were measured by Vi-CELL XR Complete System. Finally, the effect of the compound on PPIX level was determined by flow cytometry.
Background: In flow cytometry, cells or beads pass a laser one at a time.

Data set [2] has as its system clone 1-9 cells (EPP K562 cellular model). Put plainly: LC/MS/MS of 5-ALA, PPIX and heme levels in the EPP K562 cellular model.
Data set [3] has as its system K562 clone-9 cells. Put plainly: Cell viability and cell count by Vi-CELL XR Complete System in EPP cellular model. The following applies: 96 hours, Vi-CELL XR. The procedure: as §1
For data set [4], the system named is human cord blood-CD34+ cells. Briefly: Human cord blood CD34+ cells transduced with FECH shRNA lentivirus, erythroid differentiation, flow cytometry. The following applies: 100 nM, 9 days differentiation. The protocol: To investigate the effects of GlyT1 inhibitors in human hematopoietic stem cells with an EPP phenotype, lentiviral vectors expressing shRNA of FECH were constructed (Table 4) and transduced at 25 MOI into human cord blood-CD34+ cells purchased from Stemexpress.
Transduced CD34+ cells were differentiated in the presence of Bitopertin (100 nM) or DMSO control into erythroid cells for 9 days in StemSpan SFEM II media supplemented with StemSpan Erythroid Expansion Supplement. The erythroid cell antigen profile was analyzed using cytofluorimetric strategy with the following surface markers: CD71 (PE Mouse Anti-Human CD71, BD Biosciences), glycophoryin A (APC Mouse Anti-Human CD235a, BD Biosciences).

In the case of `CN(CC[C@@H](Oc1ccc(-c2ccccc2)cc1)c1ccc(F)cc1)CC(=O)O` [ALX-5407], in the data set on K562 clone-9 cells [1], the 50% effective concentration (EC50) was 0.34 nM. Turning to `C[C@H](Oc1ccc(S(C)(=O)=O)cc1C(=O)N1CCN(c2ncc(C(F)(F)F)cc2F)CC1)C(F)(F)F` [Bitopertin, bitopertin], in data set [2], the “5-aminolevulinic acid (5-ALA) level” value was “decreased”, the Heme formation result is on record as “minimal effect” and the PPIX level result is “decreased”. Moreover, the “effect on cell viability” value in the data set with K562 clone-9 cells [3] is on record as “no negative effects on cell viability”. The concentration giving a half-maximal response (EC50) in the data set with K562 clone-9 cells [1] came out at 7 nM. In addition, the “effect on erythroid cell surface markers (CD71, glycophoryin A)” value in data set [4] is on record as “no negative effects”. Further, in data set [4] (FECH shRNA transduced CD34+ cells, flow cytometry), the “reduction of PPIX accumulation” value amounted to 60%.

As to `CN(CCOc1ccc(-c2ccc3c(c2)OCO3)cc1C(C)(C)C)CC(=O)O` [LY-2365109], the EC50 in the data set on K562 clone-9 cells [1] worked out at 4.1 nM. On to `CN(CC[C@@H](Oc1ccc(C(F)(F)F)cc1)c1ccccc1)CC(=O)O` [ORG-24598], for which, in the data set with K562 clone-9 cells [1], the concentration for a half-maximal effect (EC50) was found to be 5.6 nM.

In the case of `COc1cc(C(=O)NCC2(N(C)C)CCCC2)cc(OC)c1OCc1ccccc1` [ORG-25543], the “inhibition of PPIX accumulation (in words)” value in the data set on K562 clone-9 cells [1] (EPP cellular model, highest tested concentration 10 μM for ORG-25543) is reported as “did not show any inhibition”. The EC50 with K562 clone-9 cells [1] is greater than 10000 nM. Regarding `COc1ccc2c(c1)CC[C@H](CN(C)CC(=O)O)[C@@H]2c1ccccc1` [ORG-25935], the EC50 with K562 clone-9 cells [1] was determined as 14 nM. Regarding `CN1C[C@@H]2[C@H](C1)[C@H]2CN(Cc1ccc(F)c(Cl)c1)C(=O)c1cn(C)cn1` [PF-03463275], the EC50 in the data set on K562 clone-9 cells [1] stood at 46 nM. Still for that read-out and setting: the value for `O=C(N[C@@H](c1ccccc1)[C@@H]1CCCCN1)c1cccc(C(F)(F)F)c1Cl` [SSR-504734] was 306 nM.

The term EC50 denotes the midpoint of the concentration-response curve.
